Read-outs that look alike come from different tables or passages of the source.
Key:
Bmi-1 protein = experiment: Sandwich ELISA Assay (Bmi-1 protein level in HT-1080 cells after compound treatment); type: cell-based
How it was run: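 Sandwich ELISA quantified Bmi-1 protein against recombinant standard (125–8000 pg/mL), with lysates captured overnight at 4 °C and signal by HRP/TMB at 450 nm (570 nm reference). Lysates came from HT-1080 cells incubated 40–48 h with test compounds in 0.5% DMSO.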

[1] = Table 1, Bmi-1 sandwich ELISA, read-out: ELISA EC50 value for Bmi-1 protein
[2] = read-out: ELISA EC50 value for Bmi-1 protein, Table 1, Bmi-1 sandwich ELISA

SMILES	melting point [°C]	EC50 (Bmi-1 protein; [1]) [nM]	EC50 (Bmi-1 protein; [2]) [nM]
N#Cc1cc(Nc2ccc(OC(F)F)c(F)c2)nc(-c2c(C3CC3)nc3ccc(F)cn23)c1 [compound 349, 2-(2-cyclopropyl-6-fluoroimidazo[1,2-a]pyridin-3-yl)-6-{[4-(difluoromethoxy)-3-fluorophenyl]amino}pyridine-4-carbonitrile]	185 to 186	10 to 100	
N#Cc1cc(Nc2ccc(OC(F)(F)F)cc2)nc(-c2c(C3CC3)nc3ccc(F)cn23)c1 [compound 350, 2-(2-cyclopropyl-6-fluoroimidazo[1,2-a]pyridin-3-yl)-6-{[4-(trifluoromethoxy)phenyl]amino}pyridine-4-carbonitrile]	194 to 195	10 to 100	
Cc1nn(CCn2ncnn2)c(C)c1-c1cncc(Nc2ccc(C(F)(F)F)cc2)n1 [compound 352, 6-{3,5-dimethyl-1-[2-(2H-tetrazol-2-yl)ethyl]-1H-pyrazol-4-yl}-N-[4-(trifluoromethyl)phenyl]pyrazin-2-amine]	138 to 139		1 to 10
Fc1ccc2nc(C3CC3)n(-c3cncc(Nc4ccc(C(F)(F)F)cc4)n3)c2c1 [compound 362, 6-(2-cyclopropyl-6-fluoro-1H-benzimidazol-1-yl)-N-[4-(trifluoromethyl)phenyl]pyrazin-2-amine]	263 to 265	1 to 10	
Nc1cc(Nc2ccc(OC(F)(F)F)cc2)nc(-c2c(C3CC3)nc3ccc(F)cn23)c1 [compound 367, 6-(2-cyclopropyl-6-fluoroimidazo[1,2-a]pyridin-3-yl)-N^2-[4-(trifluoromethoxy)phenyl]pyridine-2,4-diamine]	166 to 168	10 to 100	
NC(=O)Nc1cc(Nc2ccc(C(F)(F)F)cc2)nc(-c2c(C3CC3)nc3ccc(F)cn23)c1 [compound 369, 1-[2-(2-cyclopropyl-6-fluoroimidazo[1,2-a]pyridin-3-yl)-6-{[4-(trifluoromethyl)phenyl]amino}pyridin-4-yl]urea]	232 to 235		100 to 3000
CCn1nc(C)c(-c2cncc(Nc3ccc(OC(F)F)c(F)c3)n2)c1C [compound 382, N-[4-(difluoromethoxy)-3-fluorophenyl]-6-(1-ethyl-3,5-dimethyl-1H-pyrazol-4-yl)pyrazin-2-amine]	129 to 130	1 to 10	
Cc1nn(Cc2cccnc2)c(C)c1-c1cncc(Nc2ccc(C(F)(F)F)cc2)n1 [compound 402, 6-[3,5-dimethyl-1-(pyridin-3-ylmethyl)-1H-pyrazol-4-yl]-N-[4-(trifluoromethyl)phenyl]pyrazin-2-amine]	47 to 48	10 to 100	
Cc1nc2ncc(F)cn2c1-c1cc(C#N)cc(Nc2ccc(C(F)(F)F)cc2)n1 [compound 437, 2-(6-fluoro-2-methylimidazo[1,2-a]pyrimidin-3-yl)-6-{[4-(trifluoromethyl)phenyl]amino}pyridine-4-carbonitrile]	290 to 292	1 to 10	
Cc1nc2c(F)cc(F)cn2c1-c1cc(C#N)cc(Nc2ccc(OC(F)F)cc2)n1 [compound 442, 2-{[4-(difluoromethoxy)phenyl]amino}-6-(6,8-difluoro-2-methylimidazo[1,2-a]pyridin-3-yl)pyridine-4-carbonitrile]	236 to 238	1 to 10	
Cc1nc2c(F)cc(F)cn2c1-c1cc(C#N)cc(Nc2ccc(OC(F)(F)F)cc2)n1 [compound 443, 2-(6,8-difluoro-2-methylimidazo[1,2-a]pyridin-3-yl)-6-{[4-(trifluoromethoxy)phenyl]amino}pyridine-4-carbonitrile]	213 to 216	10 to 100	
Fc1cc(F)c2nc(C3CC3)n(-c3cncc(Nc4ccc(C(F)(F)F)cc4)n3)c2c1 [compound 461, 6-(2-cyclopropyl-4,6-difluoro-1H-benzimidazol-1-yl)-N-[4-(trifluoromethyl)phenyl]pyrazin-2-amine]	247 to 249		10 to 100
Fc1cc(F)c2nc(C3CC3)n(-c3cncc(Nc4ccc(OC(F)F)cc4)n3)c2c1 [compound 462, 6-(2-cyclopropyl-4,6-difluoro-1H-benzimidazol-1-yl)-N-[4-(difluoromethoxy)phenyl]pyrazin-2-amine]	202 to 203	10 to 100	

The next lines start with results.

melting point [°C]	EC50 (Bmi-1 protein; [1]) [nM]	SMILES	EC50 (Bmi-1 protein; [2]) [nM]
256 to 258	10 to 100	N#Cc1cc(Nc2ccc(C(F)(F)F)c(F)c2)nc(-c2c(C3CC3)nc3ccc(F)cn23)c1 [compound 347, 2-(2-cyclopropyl-6-fluoroimidazo[1,2-a]pyridin-3-yl)-6-{[3-fluoro-4-(trifluoromethyl)phenyl]amino}pyridine-4-carbonitrile]	
160 to 162	100 to 3000	Nc1cc(Nc2ccc(C(F)(F)F)cc2)nc(-c2c(C3CC3)nc3ccc(F)cn23)c1 [compound 363, 6-(2-cyclopropyl-6-fluoroimidazo[1,2-a]pyridin-3-yl)-N^2-[4-(trifluoromethyl)phenyl]pyridine-2,4-diamine]	
185 to 186	100 to 3000	Nc1cc(Nc2ccc(OC(F)F)cc2)nc(-c2c(C3CC3)nc3ccc(F)cn23)c1 [compound 365, 6-(2-cyclopropyl-6-fluoroimidazo[1,2-a]pyridin-3-yl)-N^2-[4-(difluoromethoxy)phenyl]pyridine-2,4-diamine]	
169 to 170	100 to 3000	Nc1cc(Nc2ccc(OC(F)F)c(F)c2)nc(-c2c(C3CC3)nc3ccc(F)cn23)c1 [compound 366, 6-(2-cyclopropyl-6-fluoroimidazo[1,2-a]pyridin-3-yl)-N^2-[4-(difluoromethoxy)-3-fluorophenyl]pyridine-2,4-diamine]	
158 to 160	100 to 3000	NS(=O)(=O)Nc1cc(Nc2ccc(C(F)(F)F)cc2)nc(-c2c(C3CC3)nc3ccc(F)cn23)c1 [compound 368, N-[2-(2-cyclopropyl-6-fluoroimidazo[1,2-a]pyridin-3-yl)-6-{[4-(trifluoromethyl)phenyl]amino}pyridin-4-yl]sulfuric diamide]	
50 to 51	100 to 3000	Cc1nn(Cc2ccccn2)c(C)c1-c1cncc(Nc2ccc(C(F)(F)F)cc2)n1 [compound 400, 6-[3,5-dimethyl-1-(pyridin-2-ylmethyl)-1H-pyrazol-4-yl]-N-[4-(trifluoromethyl)phenyl]pyrazin-2-amine]	
47 to 48	100 to 3000	Cc1nn(Cc2ccccn2)c(C)c1-c1cncc(Nc2ccc(OC(F)F)cc2)n1 [compound 401, N-[4-(difluoromethoxy)phenyl]-6-[3,5-dimethyl-1-(pyridin-2-ylmethyl)-1H-pyrazol-4-yl]pyrazin-2-amine]	
66 to 67	10 to 100	Cc1nn(Cc2ccncc2)c(C)c1-c1cncc(Nc2ccc(C(F)(F)F)cc2)n1 [compound 403, 6-[3,5-dimethyl-1-(pyridin-4-ylmethyl)-1H-pyrazol-4-yl]-N-[4-(trifluoromethyl)phenyl]pyrazin-2-amine]	
75 to 77	100 to 3000	Cc1nn(CC[C@H](O)CO)c(C)c1-c1cncc(Nc2ccc(C(F)(F)F)cc2)n1 [compound 404, (2S)-4-[3,5-dimethyl-4-(6-{[4-(trifluoromethyl)phenyl]amino}pyrazin-2-yl)-1H-pyrazol-1-yl]butane-1,2-diol]	
291 to 293	10 to 100	N#Cc1cc(Nc2ccc(C(F)(F)F)cc2)nc(-n2c(C3CC3)nc3ccc(F)cc32)c1 [compound 410, 2-(2-cyclopropyl-6-fluoro-1H-benzimidazol-1-yl)-6-{[4-(trifluoromethyl)phenyl]amino}pyridine-4-carbonitrile]	
268 to 270	10 to 100	Cc1nc2ncc(F)cn2c1-c1cc(C#N)cc(Nc2ccc(OC(F)F)c(F)c2)n1 [compound 439, 2-{[4-(difluoromethoxy)-3-fluorophenyl]amino}-6-(6-fluoro-2-methylimidazo[1,2-a]pyrimidin-3-yl)pyridine-4-carbonitrile]	
243 to 245	1 to 10	Cc1nc2c(F)cc(F)cn2c1-c1cc(C#N)cc(Nc2ccc(C(F)(F)F)cc2)n1 [compound 441, 2-(6,8-difluoro-2-methylimidazo[1,2-a]pyridin-3-yl)-6-{[4-(trifluoromethyl)phenyl]amino}pyridine-4-carbonitrile]	
238 to 241	10 to 100	Cc1nc2c(F)cc(F)cn2c1-c1cc(C#N)cc(Nc2ccc(OC(F)F)c(F)c2)n1 [compound 444, 2-{[4-(difluoromethoxy)-3-fluorophenyl]amino}-6-(6,8-difluoro-2-methylimidazo[1,2-a]pyridin-3-yl)pyridine-4-carbonitrile]	
218 to 220	100 to 3000	Fc1cc(F)c2nc(C3CC3)n(-c3cncc(Nc4ccc(OC(F)(F)F)cc4)n3)c2c1 [compound 463, 6-(2-cyclopropyl-4,6-difluoro-1H-benzimidazol-1-yl)-N-[4-(trifluoromethoxy)phenyl]pyrazin-2-amine]	
267 to 270	10 to 100	Fc1cc(F)c2nc(C3CC3)n(-c3cncc(Nc4ccc(C(F)(F)F)nc4)n3)c2c1 [compound 464, 6-(2-cyclopropyl-4,6-difluoro-1H-benzimidazol-1-yl)-N-[6-(trifluoromethyl)pyridin-3-yl]pyrazin-2-amine]	
249 to 251	10 to 100	N#Cc1cc(Nc2ccc(C(F)(F)F)cc2)nc(-c2c(C(F)F)nc3ccc(F)cn23)c1 [compound 466, 2-[2-(difluoromethyl)-6-fluoroimidazo[1,2-a]pyridin-3-yl]-6-{[4-(trifluoromethyl)phenyl]amino}pyridine-4-carbonitrile]	
